Tests used:
[1] = target: GDP-bound NRAS wild-type protein (Homo sapiens, UniProt P01111); experiment: Binding to NRAS by surface plasmon resonance (SPR), KD and KD ratio to KRAS
Summary of the method: (§1)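 GDP-bound biotin-Avi RAS captured at ~100–300 RU, 30°C, pH 7.4 HBS containing 10 µM GDP, 10 mM MgCl2, 1 mM DTT, 0.01% Tween 20 and 4% DMSO. KD by 1:1 fitting.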

[2] = target: HRAS wild-type protein (Homo sapiens, UniProt P01112); experiment: Binding to HRAS by surface plasmon resonance (SPR), KD and KD ratio to KRAS
Summary of the method: as §1

[3] = test system: human lung cancer strain NCI-H441; format: cell-based
Summary of the method: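 Readout: […] after the ATP-based reagent. Compound: serial dilutions in dimethyl sulfoxide.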

[4] = target: GDP-bound KRAS wild-type protein (Homo sapiens, UniProt P01116); experiment: Binding to KRAS by surface plasmon resonance (SPR), dissociation constant KD
Summary of the method: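 Captured GDP-RAS (~100–300 RU) was exposed to increasing compound concentrations, 75 s per step, in running buffer with 10 µM GDP, 10 mM MgCl2 and 4% DMSO at pH 7.4.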

[5] = ratio of KD for GDP-bound NRAS wild-type protein to KD for KRAS
[6] = ratio of KD for HRAS wild-type protein to KD for KRAS
[7] = Single Cycle Kinetics, 1:1 binding model
[8] = ratio of the KD value with respect to GDP-bound NRAS wild-type protein to the KD value with respect to KRAS
[9] = ratio of the KD value with respect to HRAS wild-type protein to the KD value with respect to KRAS

Chain of GDP-bound NRAS wild-type protein (P01111 whole entry): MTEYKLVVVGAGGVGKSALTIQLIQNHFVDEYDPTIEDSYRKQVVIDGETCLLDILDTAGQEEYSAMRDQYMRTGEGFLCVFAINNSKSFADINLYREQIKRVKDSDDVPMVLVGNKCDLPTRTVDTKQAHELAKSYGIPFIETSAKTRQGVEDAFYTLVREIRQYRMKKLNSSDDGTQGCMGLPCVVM
Chain of HRAS wild-type protein (P01112 whole entry): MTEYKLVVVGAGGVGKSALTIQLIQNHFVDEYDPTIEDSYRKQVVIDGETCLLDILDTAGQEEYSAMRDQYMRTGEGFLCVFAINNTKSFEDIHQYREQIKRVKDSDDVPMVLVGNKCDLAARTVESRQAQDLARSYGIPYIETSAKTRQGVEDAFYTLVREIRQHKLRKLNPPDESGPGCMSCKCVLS
Chain of GDP-bound KRAS wild-type protein (P01116 1-188 isoform P01116-2): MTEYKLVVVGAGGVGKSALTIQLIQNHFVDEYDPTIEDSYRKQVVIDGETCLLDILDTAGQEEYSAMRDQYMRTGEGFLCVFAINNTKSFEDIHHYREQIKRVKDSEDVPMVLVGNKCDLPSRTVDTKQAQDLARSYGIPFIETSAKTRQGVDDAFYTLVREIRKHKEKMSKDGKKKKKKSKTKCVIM

| SMILES | NRAS /KRAS [1, 5] | HRAS /KRAS [2, 6] | IC50 [3] | Kd ([4]; 1:1 binding model) | NRAS /KRAS ([1]; ratio of KD value for GDP-bound NRAS wild-type protein to KD value for KRAS (SPR)) | HRAS /KRAS ([2]; ratio of KD value for HRAS wild-type protein to KD value for KRAS (SPR)) | Kd [4, 7] | Kd ([4]; Single Cycle Kinetics) | NRAS /KRAS [1, 8] | HRAS /KRAS [2, 9] |
| --- | --- | --- | --- | --- | --- | --- | --- | --- | --- | --- |
| CCO[C@@H]1C[C@H]2C(=O)NC3(CC(C)(C)C3)C(=O)N(C)[C@@H](C3CCCC3)C(=O)N(C)[C@H](C(=O)N(C)C)CC(=O)N(C)[C@@H]([C@H](C)OC)C(=O)N[C@@H]([C@@H](C)CC)C(=O)N3CCC[C@H]3C(=O)N(C)[C@H]3C/C=C\CCN(C3=O)[C@@H](Cc3ccc(C(F)(F)F)cc3)C(=O)N(C)CC(=O)N[C@@H](CCc3cc(F)c(C(F)(F)F)c(F)c3)C(=O)N2C1 [PP3181] | A (a compound having 10 or more and less than 20 is denoted as A) | B (a compound having 3 or more and less than 10 is denoted as B) | 51 nM | 0.96 nM |  |  |  |  |  |  |
| CC[C@H](C)[C@@H]1NC(=O)[C@H](CC2CC2)N(C)C(=O)C[C@@H](C(=O)N(C)C)N(C)C(=O)[C@H](C2CCCC2)N(C)C(=O)C2(CCC2)NC(=O)[C@@H]2C[C@H](C)CN2C(=O)[C@H](CCc2ccc(C(F)(F)F)c(OC)c2)NC(=O)CN(C)C(=O)[C@H](Cc2ccc(C)cc2)N2CC/C=C\C[C@@H](C2=O)N(C)C(=O)CN(C)C1=O [PP1861] |  |  | 25.7 nM |  | A (a compound having 10 or more and less than 20 is denoted as A) | B (a compound having 3 or more and less than 10 is denoted as B) | 0.091 nM |  |  |  |
| CCO[C@@H]1C[C@H]2C(=O)NC3(CCC3)C(=O)N(C)[C@@H](C3CCCC3)C(=O)N(C)[C@H](C(=O)N3CCOCC3)CC(=O)N(C)[C@@H](COC3CC3)C(=O)N[C@@H]([C@@H](C)CC)C(=O)N(C)CC(=O)N(C)[C@H]3CCCCCN(C3=O)[C@@H](Cc3ccc(C(F)(F)F)cc3)C(=O)N(C)CC(=O)N[C@@H](CCc3cc(F)c(C(F)(F)F)c(F)c3)C(=O)N2C1 [PP0852] | B (a compound having 3 or more and less than 10 is denoted as B) | B (a compound having 3 or more and less than 10 is denoted as B) | 35.3 nM |  |  |  |  | 0.46 nM |  |  |
| C#CC[C@H]1C(=O)N[C@@H]([C@@H](C)CC)C(=O)N(C)CC(=O)N(C)[C@H]2C/C=C\CCN(C2=O)[C@@H](Cc2ccc(C(F)(F)F)cc2)C(=O)N(C)CC(=O)N[C@@H](CCc2ccc(C(F)(F)F)c(OC)c2)C(=O)N2C[C@H](F)C[C@H]2C(=O)NC2(CC(C)(C)C2)C(=O)N(C)[C@@H](CCC=C)C(=O)N(C)[C@H](C(=O)N2CCCC2)CC(=O)N1C [PP3132] | A (a compound having 10 or more and less than 20 is denoted as A) | A (a compound having 10 or more and less than 20 is denoted as A) | 245 nM | 3.5 nM |  |  |  |  |  |  |
| CCO[C@@H]1C[C@H]2C(=O)NC3(CC(C)(C)C3)C(=O)N(C)[C@@H](C3CCCC3)C(=O)N(C)[C@H](C(=O)N(C)CC)CC(=O)N(C)[C@@H](CC(C)C)C(=O)N[C@@H]([C@@H](C)CC)C(=O)N(C)CC(=O)N(C)[C@H]3C/C=C\CCN(C3=O)[C@@H](Cc3ccc(C(F)F)cc3)C(=O)N(C)CC(=O)N[C@@H](CCc3cc(C)c(C(F)F)c(F)c3)C(=O)N2C1 [PP3145] | A (a compound having 10 or more and less than 20 is denoted as A) | A (a compound having 10 or more and less than 20 is denoted as A) | 29.9 nM | 0.69 nM |  |  |  |  |  |  |
| CCC[C@H]1C(=O)N[C@@H]([C@@H](C)CC)C(=O)N(C)CC(=O)N(C)[C@H]2C/C=C\CCN(C2=O)[C@@H](Cc2ccc(C)cc2)C(=O)N(C)CC(=O)N[C@@H](CCc2ccc(C(F)(F)F)c(OC)c2)C(=O)N2C[C@H](OCC)C[C@H]2C(=O)NC2(CC(C)(C)C2)C(=O)N(C)[C@@H](CC(F)(F)F)C(=O)N(C)[C@H](C(=O)N(C)C)CC(=O)N1C [PP3007] | A (a compound having 10 or more and less than 20 is denoted as A) | A (a compound having 10 or more and less than 20 is denoted as A) | 63.4 nM | 1.3 nM |  |  |  |  |  |  |
| CCO[C@@H]1C[C@H]2C(=O)NC3(CCC3)C(=O)N(C)[C@@H](C3CCCC3)C(=O)N(C)[C@H](C(=O)N3CCOCC3)CC(=O)N(C)[C@@H](CC3CCCC3)C(=O)N[C@@H]([C@@H](C)CC)C(=O)N(C)CC(=O)N(C)[C@H]3CCCCCN(C3=O)[C@@H](Cc3ccc(C(F)(F)F)cc3)C(=O)N(C)CC(=O)N[C@@H](CCc3cc(F)c(C(F)(F)F)c(F)c3)C(=O)N2C1 [PP0685] |  |  | 52.3 nM |  |  |  | 0.8 nM |  | B (a compound having 3 or more and less than 10 is denoted as B) | B (a compound having 3 or more and less than 10 is denoted as B) |
| CCC[C@H]1C(=O)N[C@@H]([C@@H](C)CC)C(=O)N(C)CC(=O)N(C)[C@H]2C/C=C\CCN(C2=O)[C@@H](CC2CCCCC2)C(=O)N(C)CC(=O)N[C@@H](CCc2ccc(C(F)(F)F)c(OC)c2)C(=O)N2C[C@H](OCC)C[C@H]2C(=O)N(C)C2(CCC2)C(=O)N(C)[C@@H](C(CC)CC)C(=O)N(C)[C@H](C(=O)N(C)C)CC(=O)N1C [PP2333] |  |  | 44.7 nM |  |  |  | 1.9 nM |  | A (a compound having 10 or more and less than 20 is denoted as A) | A (a compound having 10 or more and less than 20 is denoted as A) |
| CCO[C@@H]1C[C@H]2C(=O)NC3(CC(C)(C)C3)C(=O)N(C)[C@@H](C3CCCC3)C(=O)N(C)[C@H](C(=O)N(C)CC)CC(=O)N(C)[C@@H]([C@@H](C)OC)C(=O)N[C@@H]([C@@H](C)CC)C(=O)N(C)CC(=O)N(C)[C@H]3C/C=C\CCN(C3=O)[C@@H](Cc3ccc(C(F)(F)F)cc3)C(=O)N(C)CC(=O)N[C@@H](CCc3ccc(C(F)(F)F)c(OC)c3)C(=O)N2C1 [PP3158] | A (a compound having 10 or more and less than 20 is denoted as A) | A (a compound having 10 or more and less than 20 is denoted as A) | 9.7 nM | 0.076 nM |  |  |  |  |  |  |
| CCO[C@@H]1C[C@H]2C(=O)NC3(CCC3)C(=O)N(C)[C@@H](C3CCCC3)C(=O)N(C)[C@H](C)CC(=O)N(C)[C@@H](CC(C)C)C(=O)N[C@@H]([C@@H](C)CC)C(=O)N(C)CC(=O)N(C)[C@H]3C/C=C\CCN(C3=O)[C@@H](Cc3ccc(C(F)(F)F)cc3)C(=O)N(C)CC(=O)N[C@@H](CCc3cc(F)c(C(F)(F)F)c(F)c3)C(=O)N2C1 [PP1100] | B (a compound having 3 or more and less than 10 is denoted as B) | B (a compound having 3 or more and less than 10 is denoted as B) | 17.6 nM |  |  |  |  | 0.19 nM |  |  |
| CCO[C@@H]1C[C@H]2C(=O)NC3(CCC3)C(=O)N(C)[C@@H](C3CCCC3)C(=O)N(C)[C@H](C(=O)N(C)CC)CC(=O)N(C)[C@@H](C3CCC3)C(=O)N[C@@H]([C@@H](C)CC)C(=O)N(C)CC(=O)N(C)[C@H]3C/C=C\CCN(C3=O)[C@@H](Cc3ccc(C(F)(F)F)cc3)C(=O)N(C)CC(=O)N[C@@H](CCc3ccc(C(F)(F)F)c(OC)c3)C(=O)N2C1 [PP2022] |  |  | 2.7 nM |  |  |  | 0.11 nM |  | A (a compound having 10 or more and less than 20 is denoted as A) | A (a compound having 10 or more and less than 20 is denoted as A) |
| CCO[C@@H]1C[C@H]2C(=O)NC3(CCC3)C(=O)N(C)[C@@H](C3CCCC3)C(=O)N(C)[C@H](C(=O)N3CCOCC3)CC(=O)N(C)[C@@H](CC(C)C)C(=O)N[C@@H]([C@@H](C)CC)C(=O)N(C)CC(=O)N(C)[C@H]3CCCCCN(C3=O)[C@@H](Cc3nccs3)C(=O)N(C)CC(=O)N[C@@H](CCc3cc(F)c(C(F)(F)F)c(F)c3)C(=O)N2C1 [PP0923] | B (a compound having 3 or more and less than 10 is denoted as B) | B (a compound having 3 or more and less than 10 is denoted as B) | 445 nM |  |  |  |  | 1.6 nM |  |  |
| CCCOC[C@H]1C(=O)N[C@@H]([C@@H](C)CC)C(=O)N(C)CC(=O)N(C)[C@H]2C/C=C\CCN(C2=O)[C@@H](Cc2ccc(C)cc2)C(=O)N(C)CC(=O)N[C@@H](CCc2cc(F)c(C(F)(F)F)c(F)c2)C(=O)N2C[C@H](C)C[C@H]2C(=O)NC2(CCCC2)C(=O)N(C)[C@@H](C2CCCC2)C(=O)N(C)[C@H](C(=O)N(C)C)CC(=O)N1C [PP2225] |  |  | 41.4 nM |  |  |  | 0.2 nM |  | A (a compound having 10 or more and less than 20 is denoted as A) | A (a compound having 10 or more and less than 20 is denoted as A) |
| CCO[C@@H]1C[C@H]2C(=O)NC3(CC(C)(C)C3)C(=O)N(C)[C@@H](C3CCCC3)C(=O)N(C)[C@H](C(=O)N(C)CC)CC(=O)N(C)[C@@H](CC(C)C)C(=O)N[C@@H]([C@@H](C)CC)C(=O)N(C)CC(=O)N(C)[C@H]3C/C=C\CCN(C3=O)[C@@H](Cc3ccc(C(F)F)cc3)C(=O)N(C)CC(=O)N[C@@H](CCc3cc(F)c(CC)c(OC)c3)C(=O)N2C1 [PP3143] | A (a compound having 10 or more and less than 20 is denoted as A) | A (a compound having 10 or more and less than 20 is denoted as A) | 41 nM | 0.66 nM |  |  |  |  |  |  |
| CCO[C@@H]1C[C@H]2C(=O)NC3(CC(C)(C)C3)C(=O)N(C)[C@@H](C3CCCC3)C(=O)N(C)[C@H](C(=O)N(C)CC)CC(=O)N(C)[C@H]3CC/C=C/c4ccc(cc4)C[C@@H](C(=O)N(C)CC(=O)N[C@@H](CCc4ccc(Cl)c(Cl)c4)C(=O)N2C1)N1CC/C=C\C[C@@H](C1=O)N(C)C(=O)CN(C1CC1)C(=O)[C@H]([C@@H](C)CC)NC3=O [PP2598] | A (a compound having 10 or more and less than 20 is denoted as A) | A (a compound having 10 or more and less than 20 is denoted as A) | 23 nM | 1.9 nM |  |  |  |  |  |  |

— EP4603105A1, “PHARMACEUTICAL COMPOSITION CONTAINING CYCLIC COMPOUND HAVING SELECTIVE KRAS INHIBITORY EFFECT AGAINST HRAS AND NRAS” (CHUGAI SEIYAKU KABUSHIKI KAISHA, priority 2022, dated 2024)
